{"source": "patent US12617794B2", "about": "“GABAA positive allosteric modulator compounds, methods of making, and uses thereof” (NEUROCYCLE THERAPEUTICS, INC., priority 2019, dated 2026)", "key": {"[1]": {"test": "Solubility in aqueous buffers, SGF, FaSSIF and FeSSIF (Example 15)", "format": "physicochemical", "conditions": "for solubility thermodynamic: 20 °C, thermodynamic from solid, read-out: Measured Conc.; for solubility thermodynamic / Measured Conc. (μg/mL): ~20-25° C., ~24 hours", "experimental": "About 2 mg of test article was added to a 1.5 mL vials which contained ˜1.0 mL of one medium listed in Table 7 and Table 8, which was then sealed. The mixtures were stirred at ˜20-25° C. for ˜24 hours. After that, the mixture was filtered by 0.45 μm filter membrane and then the supernatant was analyzed by HPLC."}, "[2]": {"test": "Preliminary (estimated) solubility study of TPA023B Phosphate Form A (30.3, Example 34)", "format": "physicochemical", "conditions": "estimated by visual observation", "experimental": "Then the mixture was agitated in a shaker block for at least 30 mins. Additional solvent was added in a stepwise manner until all solids were dissolved. The dissolution was checked by visual observation and the amount of solvent required to dissolve all the solids was recorded."}, "[3]": {"test": "Slurry of Phosphate Form A in acetone with different water content (Example 68)", "format": "physicochemical", "conditions": "for Result (solid form after slurry): slurry in acetone at RT", "source_text": "The suspension was stirred at RT for hours. The solid was isolated and analyzed. […] Phosphate dissociated when water content is >, 4% wt. in acetone at RT."}, "[4]": {"test": "DVS of TPA023B Phosphate Form A (Example 33)", "format": "physicochemical", "conditions": "for hygroscopicity: DVS; for crystal form after DVS test: XRPD"}, "[5]": {"test": "Approximate solubility study of TPA023B phosphate (Example 25)", "format": "physicochemical", "conditions": "RT, listed as TPA023B phosphate", "experimental": "The total amount of solvent was recorded to calculate the approximate solubility in these solvents."}, "Competitive slurry study": {"test": "Competitive slurry study", "format": "physicochemical", "source_text": "Determining which polymorphic form is more thermodynamically stable may be experimentally determined by conventional methods known in the art. For example, a competitive slurry experiment in which a 1:1 mixture of polymorphic forms is stirred for a period of time in a solvent in which both polymorphic forms are partly soluble may be conducted. It is accepted by those skilled in the art that if the 1:1 mixture converts entirely to one polymorphic form, that form that results is more thermodynamically stable of the two, while the other form is metastable.\nTPA023B Phosphate of mixed forms was added into specific solvents and stirred at RT or 50° C. for 1 day. The suspensions were filtered and characterized by XRPD."}, "[6]": {"test": "Pharmacokinetics in rats (Example 17)", "format": "in vivo, Sprague-dawley rats", "conditions": "rat, PO 2 mg/kg, mean", "experimental": "To evaluate the pharmacokinetics (PK) of Phosphate Polymorphic Form A, suspensions or solutions were dosed by either oral gavage (0.5% methyl cellulose) or IV (60% PEG400/40% saline) in normal, healthy, male Sprague-dawley rats with serial blood collection focused on the first 48 hours of exposure. Rats were dosed with vehicle or test compounds at 1 mg/kg (IV) or 2 mg/kg (PO). Approximately 0.2 mL blood was collected at each time point. All blood samples were collected jugular vein puncture. All blood samples were transferred into plastic microcentrifuge tubes containing 5 μL of EDTA-K2 as anti-coagulant or pre-chilled commercial EDTA-K2 tubes and placed on wet ice until centrifugation. Harvested blood samples were centrifuged within 30 min of collection at 7,000 rpm for 10 minutes. The extracts were analyzed for compound concentration by LC/MS/MS. Data were analyzed with Phoenix WinNonlin 6.3 using the IV-Noncompartmental model 201 (IV bolus input) and PO-Noncompartmental model 200 (extravascular input) methods."}}, "note": "Like-named read-outs stand apart in the source and are kept apart here.", "data": [{"molecule": "CC(C)(O)c1cnn2c(-c3ccc(F)c(-c4c(F)cccc4C#N)c3)cnc2n1", "note": "[Phosphate Polymorphic Form A, 2′,6-difluoro-5′-[3-(1-hydroxy-1-methylethyl)-imidazo[1,2-b][1,2,4]triazin-7-yl]biphenyl-2-carbonitrile]", "values": [{"measurement": "solubility thermodynamic", "setting": "[1]; FaSSIF, fassif, FaSSIF", "result": 7.14, "unit": "µg/mL"}, {"measurement": "solubility thermodynamic", "setting": "[1]; FeSSIF, fessif, FeSSIF", "result": 50.7, "unit": "µg/mL"}, {"measurement": "solubility thermodynamic", "setting": "[1]; SGF, simulated gastric fluid, SGF", "result": 3.85, "unit": "µg/mL"}, {"measurement": "solubility thermodynamic", "setting": "[1]; citrate buffer, pH 3, aqueous buffer, pH 3.0 citrate buffer (100 mM), LOQ: 0.1 μg/mL", "result": 0.16, "unit": "µg/mL"}, {"measurement": "solubility compared with Free Base Polymorphic Form A", "setting": "[1]; in SGF, FaSSIF and FeSSIF", "result": "higher solubility"}, {"measurement": "Measured Conc. (μg/mL)", "setting": "[1]; pH 4.5 citrate buffer (100 mM), LOQ: 0.1 μg/mL", "result": "<LOQ"}, {"measurement": "Measured Conc. (μg/mL)", "setting": "[1]; pH 7.4 PBS (50 mM), LOQ: 0.1 μg/mL", "result": "<LOQ"}, {"measurement": "Measured Conc. (μg/mL)", "setting": "[1]; pH 9.0 USP Buffer (50 mM), LOQ: 0.1 μg/mL", "result": "<LOQ"}, {"measurement": "solubility", "setting": "[2]; 1,4-Dioxane, organic solvent or mixture, thermodynamic from solid, 1,4-Dioxane, read-out: Solubility", "result": 25000, "unit": "µg/mL"}, {"measurement": "solubility", "setting": "[2]; 2-Me THF, organic solvent or mixture, thermodynamic from solid, 2-Me THF, read-out: Solubility", "result": 20000, "unit": "µg/mL"}, {"measurement": "solubility", "setting": "[2]; ACN, organic solvent or mixture, thermodynamic from solid, ACN, read-out: Solubility", "result": "< 2000", "unit": "µg/mL"}, {"measurement": "solubility", "setting": "[2]; DCM, organic solvent or mixture, thermodynamic from solid, DCM, read-out: Solubility", "result": 2000, "unit": "µg/mL"}, {"measurement": "solubility", "setting": "[2]; DMF, organic solvent or mixture, thermodynamic from solid, DMF, read-out: Solubility", "result": 96000, "unit": "µg/mL"}, {"measurement": "solubility", "setting": "[2]; DMSO, organic solvent or mixture, thermodynamic from solid, DMSO, read-out: Solubility", "result": 93000, "unit": "µg/mL"}, {"measurement": "solubility", "setting": "[2]; EA, organic solvent or mixture, thermodynamic from solid, EA, read-out: Solubility", "result": "< 2000", "unit": "µg/mL"}, {"measurement": "solubility", "setting": "[2]; EA, listed as TPA023B Phosphate Form A", "result": "<2000", "unit": "µg/mL"}, {"measurement": "solubility", "setting": "[2]; Heptane, listed as TPA023B Phosphate Form A", "result": "<1000", "unit": "µg/mL"}, {"measurement": "solubility", "setting": "[2]; IPA, organic solvent or mixture, thermodynamic from solid, IPA, read-out: Solubility", "result": 2500, "unit": "µg/mL"}, {"measurement": "solubility", "setting": "[2]; MTBE, organic solvent or mixture, thermodynamic from solid, MTBE, read-out: Solubility", "result": "< 2000", "unit": "µg/mL"}, {"measurement": "solubility", "setting": "[2]; MTBE, listed as TPA023B Phosphate Form A", "result": "<1500", "unit": "µg/mL"}, {"measurement": "solubility", "setting": "[2]; THF, organic solvent or mixture, thermodynamic from solid, THF, read-out: Solubility", "result": 28000, "unit": "µg/mL"}, {"measurement": "solubility", "setting": "[2]; Water, listed as TPA023B Phosphate Form A", "result": "<2000", "unit": "µg/mL"}, {"measurement": "solubility", "setting": "[2]; acetone, organic solvent or mixture, thermodynamic from solid, Acetone, read-out: Solubility", "result": 7000, "unit": "µg/mL"}, {"measurement": "solubility", "setting": "[2]; ethanol, organic solvent or mixture, thermodynamic from solid, Ethanol, read-out: Solubility", "result": 3000, "unit": "µg/mL"}, {"measurement": "solubility", "setting": "[2]; heptane, organic solvent or mixture, thermodynamic from solid, Heptane, read-out: Solubility", "result": "< 2000", "unit": "µg/mL"}, {"measurement": "solubility", "setting": "[2]; methanol, organic solvent or mixture, thermodynamic from solid, Methanol, read-out: Solubility", "result": 9500, "unit": "µg/mL"}, {"measurement": "solubility", "setting": "[2]; water, thermodynamic from solid, Water, read-out: Solubility", "result": "< 2000", "unit": "µg/mL"}, {"measurement": "Result (solid form after slurry)", "setting": "[3]; water content 3 wt. %", "result": "Phosphate Form A"}, {"measurement": "Result (solid form after slurry)", "setting": "[3]; water content 3.5 wt. %", "result": "Phosphate Form A"}, {"measurement": "Result (solid form after slurry)", "setting": "[3]; water content 4 wt. %", "result": "Phosphate Form A + Free Base Form E"}, {"measurement": "Result (solid form after slurry)", "setting": "[3]; water content 4.5 wt. %", "result": "Phosphate Form A + Free Base Form E"}, {"measurement": "Result (solid form after slurry)", "setting": "[3]; water content 5 wt. %", "result": "Phosphate Form A + Free Base Form E"}, {"measurement": "Result (solid form after slurry)", "setting": "[3]; water content 5.5 wt. %", "result": "Phosphate Form A + Free Base Form E"}, {"measurement": "Result (solid form after slurry)", "setting": "[3]; water content 6 wt. %", "result": "Phosphate Form A + Free Base Form E"}, {"measurement": "solid form after slurry in acetone", "setting": "[3]; water content <3.5% wt., RT", "result": "remained unchanged"}, {"measurement": "solid form after slurry in acetone", "setting": "[3]; water content >, 4% wt. in acetone at RT", "result": "dissociated"}, {"measurement": "hygroscopicity", "setting": "[4]; listed as Phosphate Form A", "result": "slightly hygroscopic"}, {"measurement": "hygroscopicity", "setting": "[4]; listed as phosphate Form A", "result": "slight hygroscopicity"}, {"measurement": "crystal form after DVS test", "setting": "[4]; listed as Phosphate Form A", "result": "remained unchanged"}, {"measurement": "crystal form after DVS test", "setting": "[4]; listed as phosphate Form A", "result": "no change"}, {"measurement": "water absorbed (DVS)", "setting": "[4]; from 0 to 80% RH", "result": 0.68, "unit": "%"}, {"measurement": "Solubility (mg/mL)", "setting": "[5]; DMF", "result": "relatively high solubility"}, {"measurement": "Solubility (mg/mL)", "setting": "[5]; DMSO", "result": "relatively high solubility"}, {"measurement": "thermodynamic stability among phosphate forms", "setting": "Competitive slurry study", "result": "most thermodynamically stable form"}, {"measurement": "AUCExtra (%)", "setting": "[6]", "result": 6.25, "unit": "%"}]}]}
